Test results reported in patent publication US12195427B2, “MASP-2 inhibitors and methods of use” (priority 2018, dated 2025).
Where a name gives a salt, the structure may show the parent alone.

Tests used:
human α-thrombin = human α-thrombin (Homo sapiens (Human), UniProt P00734); assay: Enzymatic Assay for Thrombin (Boc-VPR-AMC); type: biochemical
MASP-2 CCP2-SP = MASP-2 CCP2-SP (Homo sapiens (Human), UniProt O00187); assay: MASP-2 co-crystallization, X-ray crystallography and structure analysis (H-bonds, van der Waals contacts); set-up: van der Waals contact distance, MASP-2 HIS 483 atom CD2 / van der Waals contact distance, MASP-2 HIS 483 atom NE2 / van der Waals contact distance, SER 654 C to compound atom / van der Waals contact distance, SER 654 O to compound atom / van der Waals contact distance, TRP 655 C to compound atom / van der Waals contact distance, MASP-2 GLY 528 atom CA / van der Waals contact distance TRP 655 atom CZ3 / van der Waals contact distance TRP 655 atom N / van der Waals contact distance TRP 655 atom CE3 / van der Waals contact distance GLY 656 atom C / van der Waals contact distance GLY 656 atom CA / van der Waals contact distance GLY 656 atom O / van der Waals contact distance, MASP-2 TYR 607 atom CD1 / van der Waals contact distance, MASP-2 PRO 606 atom O / d(C3,CA1) / d(CA1,N1)2 / d(H4,O1) / d(H4,O2) / d(O1,O2) / d(CA1,O2) / d(CA6,O1) / d(CA6,O2) / d(CA1,C5) / d(O2,H3) / d(N2,C2) / d(CA5,N2) / d(N2,C4) / d(N2,C6) / d(N2,CA3) / d(N2,O3) / d(O4,H2): unit not given beside the values; settings: for H-bond distance to MASP-2 GLY 656 atom O: GLY 656 O; for H-bond distance to MASP-2 SER 628 atom O: SER 628 O; for H-bond distance to MASP-2 SER 654 atom O: SER 654 O; for H-bond distance to MASP-2 SER 657 atom O: SER 657 O; for van der Waals contact distance GLY 656 atom C: MASP-2 GLY 656 C; for van der Waals contact distance SER 657 atom C: MASP-2 SER 657 C, columns c12-c13 (inferred);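 as to Ligand-pharmacophore element distance, pharmacophore element C2: distance from averaged pharmacophore element to bound ligand; missing value means element absent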;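 as to Ligand-pharmacophore element distance, pharmacophore element C3: distance from averaged pharmacophore element to bound ligand; missing value means element absent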;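 as to Ligand-pharmacophore element distance, pharmacophore element C4: distance from averaged pharmacophore element to bound ligand; missing value means element absent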;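 as to Ligand-pharmacophore element distance, pharmacophore element C5: distance from averaged pharmacophore element to bound ligand; missing value means element absent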
Chain of MASP-2 CCP2-SP (O00187 445-686): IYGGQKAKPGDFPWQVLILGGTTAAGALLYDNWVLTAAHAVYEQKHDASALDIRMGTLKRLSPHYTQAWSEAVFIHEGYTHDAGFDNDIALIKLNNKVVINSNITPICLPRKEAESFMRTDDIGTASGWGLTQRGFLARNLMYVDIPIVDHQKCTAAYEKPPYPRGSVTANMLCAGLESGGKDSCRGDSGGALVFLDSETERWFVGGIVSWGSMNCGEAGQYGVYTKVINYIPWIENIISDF
Chain of MASP-2 CCP2-SP (O00187 364-432 partner): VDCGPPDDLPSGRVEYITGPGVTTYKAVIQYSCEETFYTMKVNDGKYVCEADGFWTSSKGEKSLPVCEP
Procedure, shortened: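 Human MASP-2 CCP2-SP, untagged or 6His-tagged, was expressed in E. coli and crystallized. Crystals were soaked with inhibitor in crystallization solution, flash-cooled in liquid nitrogen, and diffracted with synchrotron X-rays (wavelength 1.0). Structures were solved by molecular replacement from 1Q3X and partially refined.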

MASP-2 (CCP1-CCP2-SP) = MASP-2 (CCP1-CCP2-SP) (Homo sapiens (Human), UniProt O00187); assay: Enzymatic Assay for MASP-2 (fluorogenic substrate); type: biochemical
Chain of MASP-2 (CCP1-CCP2-SP) (O00187 445-686): as the sequence (O00187 445-686) above

Lectin Pathway = Lectin Pathway Activation Assay in Human Serum (mannan-coated ELISA, C3c detection); type: biochemical; settings: 1% human serum
Experimental: Microtiter ELISA plate was coated with mannan from Saccharomyces cerevisiae (Sigma-Aldrich, M7504) for overnight at 4° C. in coating buffer [15 mM Na2CO3, 35 mM NaHCO3].

[1] = Table A2-9 second part, ARG 630, AA atoms N, NE, NH1
[2] = Table A5-1 pharmacophore: distance between elements, S2/S1 region
[3] = Table A5-2 pharmacophore distance, S3/S4 region
[4] = Table A7-1, between pharmacophore elements of the bound compound
[5] = Table A8-6, nearest protein atom in cell to the left

For C[C@H](NC(=O)[C@H](N)CCc1cccc(Cl)c1)C(=O)NCc1ccc(C(=N)N)cc1 [compound 1081], the Ki (human α-thrombin) was under 500 nM, the “H-bond distance to MASP-2 GLY 656 atom O” value (MASP-2 CCP2-SP; Table A1 (H-Bonds)) was 2.92 and the “H-bond distance to MASP-2 SER 628 atom O” value (MASP-2 CCP2-SP; Table A1 (H-Bonds)) was 2.86. For the same molecule, the “H-bond distance to MASP-2 SER 654 atom O” value (MASP-2 CCP2-SP; Table A1 (H-Bonds)) was 2.81, the “H-bond distance to MASP-2 SER 657 atom O” value (MASP-2 CCP2-SP; Table A1 (H-Bonds)) was 2.69 and the “van der Waals contact distance, MASP-2 HIS 483 atom CD2” value (MASP-2 CCP2-SP; Table A2-1) was 3.74. For the same molecule, the “van der Waals contact distance, MASP-2 PHE 529 atom CD1” value (MASP-2 CCP2-SP; Table A2-3) was 3.38, the “van der Waals contact distance, MASP-2 amino acid atom to compound atom” value (MASP-2 CCP2-SP; Table A2-7 continued: CYS 629 (CA)) was 3.8 and the “van der Waals contact distance, MASP-2 amino acid atom to compound atom” value (MASP-2 CCP2-SP; Table A2-9, ARG 630, AA atoms CG, CZ) was 3.76. For the same molecule, the “van der Waals contact distance, MASP-2 amino acid atom to compound atom” value (MASP-2 CCP2-SP; [1]) was 3.81, the “van der Waals contact distance, VAL 653 CG1 to compound atom” value (MASP-2 CCP2-SP; Table A2-11) was 3.84 and the “van der Waals contact distance GLY 656 atom C” value (MASP-2 CCP2-SP; Table A2-13) was 3.27. For the same molecule, the “van der Waals contact distance TRP 655 atom N” value (MASP-2 CCP2-SP; Table A2-13, MASP-2 TRP 655 N) was 3.83, the “van der Waals contact distance TRP 655 atom O” value (MASP-2 CCP2-SP; Table A2-13, MASP-2 TRP 655 O) was 3.8 and the “van der Waals contact distance GLY 656 atom O” value (MASP-2 CCP2-SP; Table A2-14, MASP-2 GLY 656 O) was 3.81. The “van der Waals contact distance SER 657 atom C” value (MASP-2 CCP2-SP; Table A2-14) was 3.62, the “Ligand-pharmacophore element distance, pharmacophore element C2” value (MASP-2 CCP2-SP; Table A4-1, element C2) was 0 and the “Ligand-pharmacophore element distance, pharmacophore element C3” value (MASP-2 CCP2-SP; Table A4-1, element C3) was 0. The “Ligand-pharmacophore element distance, pharmacophore element C4” value (MASP-2 CCP2-SP; Table A4-1, element C4) was 1.99, the “Ligand-pharmacophore element distance, pharmacophore element C5” value (MASP-2 CCP2-SP; Table A4-1, element C5) was 0 and the “Ligand-pharmacophore element distance, pharmacophore element C6” value (MASP-2 CCP2-SP; Table A4-1, element C6) was 0. For the same molecule, the “Ligand-pharmacophore element distance, pharmacophore element C7” value (MASP-2 CCP2-SP; Table A4-1, element C7) was 0, the “Ligand-pharmacophore element distance, pharmacophore element CA1” value (MASP-2 CCP2-SP; Table A4-1, element CA1) was 0.48 and the “Ligand-pharmacophore element distance, pharmacophore element CA2” value (MASP-2 CCP2-SP; Table A4-1, element CA2) was 0.76. For the same molecule, the “Ligand-pharmacophore element distance, pharmacophore element CA3” value (MASP-2 CCP2-SP; Table A4-1, element CA3) was 0, the “Ligand-pharmacophore element distance, pharmacophore element CA4” value (MASP-2 CCP2-SP; Table A4-1, element CA4) was 0 and the “Ligand-pharmacophore element distance, pharmacophore element CA5” value (MASP-2 CCP2-SP; Table A4-1, element CA5) was 0. The “Ligand-pharmacophore element distance, pharmacophore element CA6” value (MASP-2 CCP2-SP; Table A4-1, element CA6) was 0, the “d(CA1,N1)” value (MASP-2 CCP2-SP; [2]) was 3.62 and the “d(CA1,O1)” value (MASP-2 CCP2-SP; [2]) was 4.57. The “d(CA1,O2)” value (MASP-2 CCP2-SP; [2]) was 4.27, the “d(H4,O1)” value (MASP-2 CCP2-SP; [2]) was 5.10 and the “d(H4,O2)” value (MASP-2 CCP2-SP; [2]) was 4.46. The “d(O1,O2)” value (MASP-2 CCP2-SP; [2]) was 3.45, the “d(N2,C4)” value (MASP-2 CCP2-SP; [3]) was 7.56 and the “d(N2,C4)4” value (MASP-2 CCP2-SP; [3]) was 7.56. For the same molecule, the “d(N2,CA2)” value (MASP-2 CCP2-SP; [3]) was 6.05, the “d(O2,H3)” value (MASP-2 CCP2-SP; [3]) was 5.78 and the “d(O2,N2)” value (MASP-2 CCP2-SP; [3]) was 2.76. For the same molecule, the “a(CA1, O1, O2)” value (MASP-2 CCP2-SP; Table A6-1 pharmacophore angle) was 108.25, the “a(O1, O2, H4)” value (MASP-2 CCP2-SP; Table A6-1 pharmacophore angle) was 138.44 and the “A(N1, CA1, O1) a)” value (MASP-2 CCP2-SP; Table A6-1 pharmacophore angle, all compounds with protonatable center N1 except Methyl-amino-pyridine) was 163.55. The “a(O1, O2, H3)” value (MASP-2 CCP2-SP; Table A6-2 pharmacophore angle) was 153.00, the “a(O1, O2, N2)” value (MASP-2 CCP2-SP; Table A6-2 pharmacophore angle) was 139.53 and the “a(O2, N2, C4)” value (MASP-2 CCP2-SP; Table A6-2 pharmacophore angle) was 161.57. For the same molecule, the “a(O2, N2, C4) 2” value (MASP-2 CCP2-SP; Table A6-2 pharmacophore angle) was 119.80, the “a(O2, N2, CA2)” value (MASP-2 CCP2-SP; Table A6-2 pharmacophore angle) was 153.98 and the “Pharmacophore torsion angle a(H4, O1, O2, H3)” value (MASP-2 CCP2-SP; [4]) was 36.36. For the same molecule, the “Pharmacophore torsion angle a(H4, O1, O2, N2)” value (MASP-2 CCP2-SP; [4]) was 121.47, the “Pharmacophore torsion angle a(N1, CA1, O2, H4)” value (MASP-2 CCP2-SP; [4]) was −125.05 and the “Pharmacophore torsion angle a(O1, H4, O2, CA1)” value (MASP-2 CCP2-SP; [4]) was −62.03. For the same molecule, the “Pharmacophore torsion angle a(O1, O2, N2, CA2)” value (MASP-2 CCP2-SP; Table A7-2, between pharmacophore elements of the bound compound) was 142.86, the “Pharmacophore protein distance to MET_658 (first MET_658 column)” value (MASP-2 CCP2-SP; Table A8-6, 6th residue column, nearest protein atom in cell to the left) was 3.11 and the “Pharmacophore protein distance to MET_658 (second MET_658 column)” value (MASP-2 CCP2-SP; Table A8-6, 9th residue column, nearest protein atom in cell to the left) was 3.70. For the same molecule, the “Pharmacophore protein distance to GLY_528” value (MASP-2 CCP2-SP; [5]) was 3.22, the “Pharmacophore protein distance to PHE_529” value (MASP-2 CCP2-SP; [5]) was 3.23 and the “Pharmacophore protein distance to PRO_608” value (MASP-2 CCP2-SP; [5]) was 4.72. The “Pharmacophore protein distance to SER_611” value (MASP-2 CCP2-SP; [5]) was 2.66, the “Pharmacophore protein distance to TRP_655” value (MASP-2 CCP2-SP; Table A8-6, pharmacophore elements C6, CA3, O3, H1, nearest protein atom in cell to the left) was 3.69 and the Ki (MASP-2 (CCP1-CCP2-SP)) was under 500 nM.

With C[C@H](NC(=O)[C@H]1Cc2c([nH]c3ccccc23)CN1)C(=O)NCc1ccc(C(=N)N)cc1 [compound 1097] the Ki (human α-thrombin) was under 500 nM, the “H-bond distance to MASP-2 ASP 627 atom OD2” value (MASP-2 CCP2-SP; Table A1 (H-Bonds), ASP 627 OD2) was 2.74 and the “H-bond distance to MASP-2 GLY 656 atom N” value (MASP-2 CCP2-SP; Table A1 (H-Bonds), GLY 656 N) was 3.12. The “H-bond distance to MASP-2 GLY 656 atom O” value (MASP-2 CCP2-SP; Table A1 (H-Bonds)) was 2.98, the “H-bond distance to MASP-2 SER 628 atom O” value (MASP-2 CCP2-SP; Table A1 (H-Bonds)) was 3.03 and the “H-bond distance to MASP-2 SER 654 atom O” value (MASP-2 CCP2-SP; Table A1 (H-Bonds)) was 2.81. For the same molecule, the “H-bond distance to MASP-2 SER 657 atom O” value (MASP-2 CCP2-SP; Table A1 (H-Bonds)) was 2.74, the “van der Waals contact distance, MASP-2 HIS 483 atom CD2” value (MASP-2 CCP2-SP; Table A2-1) was 3.63 and the “van der Waals contact distance, MASP-2 HIS 483 atom NE2” value (MASP-2 CCP2-SP; Table A2-1) was 3.53. For the same molecule, the “van der Waals contact distance, MASP-2 PRO 606 atom C” value (MASP-2 CCP2-SP; Table A2-4) was 3.74, the “van der Waals contact distance, MASP-2 PRO 606 atom CB” value (MASP-2 CCP2-SP; Table A2-4) was 3.84 and the “van der Waals contact distance, MASP-2 PRO 606 atom CG” value (MASP-2 CCP2-SP; Table A2-4) was 3.82. The “van der Waals contact distance, MASP-2 PRO 606 atom O” value (MASP-2 CCP2-SP; Table A2-4) was 3.33, the “van der Waals contact distance, MASP-2 TYR 607 atom CA” value (MASP-2 CCP2-SP; Table A2-4) was 3.79 and the “van der Waals contact distance, MASP-2 amino acid atom to compound atom” value (MASP-2 CCP2-SP; [1]) was 3.71. For the same molecule, the “van der Waals contact distance, SER 654 C to compound atom” value (MASP-2 CCP2-SP; Table A2-11) was 3.73, the “van der Waals contact distance GLY 656 atom C” value (MASP-2 CCP2-SP; Table A2-13) was 3.46 and the “van der Waals contact distance SER 657 atom C” value (MASP-2 CCP2-SP; Table A2-14) was 3.52. It also gave a Ki (MASP-2 (CCP1-CCP2-SP)) of under 500 nM.

With COc1cc(C[C@@H]2CN[C@@H](C(=O)N[C@@H](C)C(=O)NCc3cc(Cl)ccc3-n3cnnn3)C2)cc(OC)c1 [compound 1419, (2R,4S)—N—((S)-1-((5-Chloro-2-(1H-tetrazol-1-yl)benzyl)amino)-1-oxopropan-2-yl)-4-(3,5-dimethoxybenzyl)pyrrolidine-2-carboxamide Trifluoroacetate salt] the Ki (human α-thrombin) was under 500 nM, the IC50 (Lectin Pathway) was under 50 nM and the Ki (MASP-2 (CCP1-CCP2-SP)) was under 500 nM.
